Results as given in patent publication US20080119530A1, “Method for treatment and prevention of ultraviolet light induced skin pathologies” (priority 2006, published 2008).

Experiments:
primary keratinocytes = settings: cited from earlier work
Tg.AC mice = assay: UV-induced skin tumorigenesis in v-rasHa transgenic Tg.AC mice; format: in vivo, mouse
Source text: Animals. Homozygous v-rasHa transgenic mice on an FVB/N background were used in in vivo experiments. To obtain keratinocytes with genetic ablation of Erbb2, loxP sites were inserted flanking exon 2 of Erbb2 such that splicing from exon1 to downstream introns upon Cre recombinase expression creates a frameshift mutation. Mice were maintained in our animal facility and provided with Purina lab chow (Nestle Purina PetCare, St. Louis, Mo.) and water ad libitum. The dorsal skin was clipped one day before treatment using electric clippers (Wahl, Sterling, II) and shaved on the day of treatment with a Remington Microscreen shaver (Madison, N.C.). […] The Ultraviolet-B TL 40W/12 RS bulbs (Philips, Somerset, N.J.) used emitted approximately 30% UVA, 70% UVB and <1% UVC, with a total output of 470 μW/cm^2, as measured with radiometric photodetector probes (Newport, Irvine, Calif.). For tumor experiments, homozygous Tg.AC mice were treated and exposed twice with an interval of 7 d. Tumor number was counted and tumor volume measured weekly using calipers. Skin-fold thickness was measured using calipers (Mitutoyo, Aurora, Ill.) to lightly pinch the dorsal skin. All animal procedures were performed in accordance with American Association of Laboratory Animal Care guidelines and approved by Creighton University's Institutional Animal Care and Use Committee.
Statistical methods. The tumor experiment was analyzed using two-way ANOVA. Statistical significance in other experiments was assessed using two-way ANOVA or Student's t-test with Bonferroni post-test. All experiments, excluding the tumor experiment, were replicated several times and consistent results obtained.
The skin tumorigenesis experiment was performed in v-ras^Ha transgenic Tg.AC mice because of their enhanced sensitivity to UV-induced skin tumorigenesis (13; 52). […] While the vehicle-treated mice continued to accrue tumors throughout the duration of the experiment, the AG825-treated group reached a plateau in tumor number by 7 weeks after the first UV exposure. By the end of the experiment, mean tumor volume was also 70% less in the AG825-treated group when compared to the vehicle control. Representative tumors from each treatment were examined histologically and all were benign squamous papillomas with similar differentiation status.
Upon activation, Erbb2 heterodimerizes with either EGFR or Erbb3 to transduce signals. Support for the hypothesis that Erbb2 increases skin carcinogenesis comes from our investigations of the functions of its dimerization partner EGFR. A tumor study was conducted to assess the role of EGFR in the clonal expansion of transformed cells to form benign tumors in the skin of v-ras^Ha transgenic Tg.AC mice. Inhibition of EGFR with the tyrphostin inhibitor AG1478 decreased the number of tumors that developed by about 50% in UV-exposed v-rasHa transgenic mice. Mean tumor volume was 80% less upon inhibition of EGFR-mediated signaling when compared to, UV-exposed and vehicle-treated controls.

Cdc25a = Cdc25a immunoblotting in keratinocytes; format: cell-based, mouse; settings: vs appropriate controls
Experimental: Immunoblotting. Flash frozen skin was ground with a mortar and pestle on dry ice, homogenized in lysis buffer containing 10 mM Tris (pH 7.4), 150 mM NaCl, 10% glycerol, 1% Triton X-100, 1 mM EDTA, Complete Protease Inhibitor Cocktail (Roche, Germany), 1 mM Na3V O4, 1.5 μM EGTA, and 10 μM NaF. Protein was quantified using the Coomassie Brilliant Blue G-250 protein assay (Bio-Rad, Hercules, Calif.). The evenness of loading and transfer was determined by staining with Ponceau S and by actin immunoblotting. […]
Cell culture. […] Transfection efficiency was quantified by determining the proportion of the cells that incorporated the fluorescent Cy3-conjugated siRNA or GFP one day post-transfection. […]
In order to understand how Erbb2 regulates S-phase progression following UV irradiation, signaling pathways known to regulate progression into and through S-phase were examined. […] The effect of abrogation of Erbb2 on Cdc25a occurred post-transcriptionally, since no decrease in Cdc25a mRNA was detected in our microarray analysis using the Erbb2 inhibitor (32). […]

[1] = current Erbb2-targeted therapies; cited from earlier work

O=c1[nH]cc(F)c(=O)[nH]1 [5-FU, 5-fluorouracil]
S-phase arrest in keratinocytes by chemotherapeutic agents (primary keratinocytes): cause S-phase arrest

COc1cc2ncnc(Nc3cccc(Cl)c3)c2cc1OC [AG1478]
mean tumor volume less than UV-exposed vehicle-treated controls (Tg.AC mice; EGFR inhibition): 80% | decrease in the number of tumors that developed (Tg.AC mice; UV-exposed v-rasHa transgenic mice, EGFR inhibition): about 50% | UV-induced carcinogenesis (FIG. 6) (Tg.AC mice; topical treatment 2 h prior to UV irradiation): suppress | Cdc25a immunoreactivity (Cdc25a): not decreased

COCC(=O)NC/C=C/c1ccc2ncnc(Nc3ccc(Oc4ccc(C)nc4)c(C)c3)c2c1 [CP-724714]
skin toxicity [1]: Low incidence

CC[C@@]1(O)C(=O)OCc2c1cc1n(c2=O)Cc2cc3ccccc3nc2-1 [camptothecin]
S-phase arrest in keratinocytes by chemotherapeutic agents (primary keratinocytes): cause S-phase arrest

pertuzumab: current Erbb2-targeted therapy
skin toxicity [1]: Low incidence
